Among the data in patent US20240246954A1, “COMPOSITIONS AND METHODS FOR INHIBITING KRAS” (TheRas, Inc., priority 2021, published 2024) are IC50 and Kd values, retold here.

Each structure is given as a SMILES string.

The target in assay [1] is T1, Avi-KRAS G12D (1-169) GppNHp/RAF1 RBD-3×FLAG (52-151) (Homo sapiens, UniProt P01116, G12D).
T1 construct: Avi-KRAS G12D (1-169) GppNHp
Put plainly: HTRF Raf1-KRAS G12D-GppNHp disruption assay. Type of assay: biochemical. As to conditions: 1 h incubation. The essentials: (§1)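 HTRF read-out (320 nm excitation, 615 nm emission) after two 1 h room-temperature incubations, first with protein mix, then detection reagents. Ten-point dilution series starting at 100 μM; results given as % activity relative to DMSO at 100%.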
A general note: TR-FRET usually uses a lanthanide donor and a delayed reading to cut background.

The target of assay [2] is GDP KRAS G12D (Homo sapiens, UniProt P01116, G12D). The experiment in a line: SPR binding affinity, GDP KRAS G12D. The conditions noted are these: GDP-bound KRAS G12D. Background: In SPR one partner is held on a chip, and binding of the other changes the refractive index at the surface.
The target of assay [3] is GppNHp KRAS G12D (Homo sapiens, UniProt P01116, G12D). The experiment in a line: SPR binding affinity, GppNHp KRAS G12D. As to conditions: GppNHp-bound KRAS G12D.
For assay [4], the target named is T2, Avi-KRAS G12D/Q25A (1-169) GppNHp/3×FLAG-PI3KCA (157-299) (Homo sapiens, UniProt P01116, G12D/Q25A).
T2 construct: Avi-KRAS G12D/Q25A (1-169) GppNHp
The experiment in a line: HTRF PI3KCA-KRAS G12D/Q25A-GppNHp disruption assay. Type of assay: biochemical. The conditions noted are these: 1 h incubation. The essentials:
as §1

Assay [5] concerns pERK in GP2d cells (KRAS G12D). Put plainly: Cell-based pERK HTRF assay. The conditions noted are these: GP2d, 1 h, 60 min incubation. The essentials: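 GP2d cells (DMEM, 10% FBS) treated 60 min with compounds in a 9-point half-log series from 1 μM top concentration, 0.25% DMSO. Lysates read for pERK by HTRF (d2/Eu cryptate antibodies) after 4–24 h at room temperature; emission at 615 nm.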

T1 sequence (P01116 1-169 isoform P01116-2 G12D limits assumed): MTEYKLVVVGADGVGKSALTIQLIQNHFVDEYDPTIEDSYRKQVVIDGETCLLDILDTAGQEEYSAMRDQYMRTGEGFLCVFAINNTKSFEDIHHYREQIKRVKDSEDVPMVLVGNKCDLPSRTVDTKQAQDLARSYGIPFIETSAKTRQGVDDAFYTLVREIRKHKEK
T2 sequence (P01116 1-169 isoform P01116-2 G12D/Q25A limits assumed): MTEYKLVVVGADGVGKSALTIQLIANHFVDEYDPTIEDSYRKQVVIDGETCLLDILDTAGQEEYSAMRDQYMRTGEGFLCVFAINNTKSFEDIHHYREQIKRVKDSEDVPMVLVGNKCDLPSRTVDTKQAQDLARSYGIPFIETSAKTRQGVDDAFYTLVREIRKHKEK
Chain of GppNHp KRAS G12D (P01116 1-188 isoform P01116-2 G12D): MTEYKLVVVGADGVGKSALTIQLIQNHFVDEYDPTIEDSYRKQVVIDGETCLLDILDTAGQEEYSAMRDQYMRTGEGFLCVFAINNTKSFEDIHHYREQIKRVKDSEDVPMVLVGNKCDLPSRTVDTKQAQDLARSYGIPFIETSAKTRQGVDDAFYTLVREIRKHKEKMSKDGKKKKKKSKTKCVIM
Chain of GDP KRAS G12D (P01116 1-188 isoform P01116-2 G12D): as above

Take `CN1CCC[C@H]1COc1nc(N2CCN(C(=O)CN)[C@@H](CC#N)C2)c2cc(Cl)c(-c3ccc(F)c4sc(N)nc34)c(F)c2n1` [Compound 54]: the IC50 in assay [1] and in assay [4] was 1000 to 10000 nM in each case. Further, the dissociation constant (Kd) in assay [2] was in the range of 100 to 1000 nM; in assay [3] it was 1000 to 10000 nM.
For the molecule `N#CC[C@H]1CN(c2ncnc3c(F)c(-c4ccc(F)c5sc(N)nc45)c(Cl)cc23)CCN1C(=O)CN` [Compound 29], the IC50 in assay [1] and in assay [4] was 10000 to 30000 nM throughout. In addition, the Kd in assay [2] fell in the range of 1000 to 10000 nM; in assay [3] it was 10000 to 30000 nM.
Consider `CO[C@@H]1CN(C)C[C@H]1Oc1nc(NCCN)c2cc(Cl)c(-c3ccc(F)c4sc(N)nc34)c(F)c2n1` [Compound 60], for which the IC50 in assay [1] and in assay [4] was 10000 to 30000 nM throughout. The molecule further showed a Kd in assay [3] of 10000 to 30000 nM.
As to `CN(c1nc(OC[C@@]23CCCN2C[C@H](F)C3)nc2c(F)c(-c3ccc(F)c4sc(N)nc34)c(C(F)(F)F)cc12)C1C2C[C@H]1CN2` (stereo partly shown) [Compound 289], the IC50 in assay [1] and in assay [4] was 100 to 1000 nM throughout. In addition, the dissociation constant Kd is at most 100 nM in assay [2] and 100 to 1000 nM in assay [3].
As to `Nc1nc2c(-c3c(C(F)(F)F)cc4c(N5CC6CCC(C5)N6)nc(OC[C@@]56CCCN5C[C@H](F)C6)nc4c3F)ccc(F)c2s1` (single isomer, unassigned) [Compound 246], the IC50 in assay [1] and in assay [4] was 1000 to 10000 nM in each case. The Kd is at most 100 nM in assay [2] and 1000 to 10000 nM in assay [3].
As for `Nc1nc2c(-c3c(C(F)(F)F)cc4c(N[C@@H]5CCNC5)nc(OC[C@@]56CCCN5C[C@H](F)C6)nc4c3F)ccc(F)c2s1` (atropisomer, axis not shown) [Compound 249], the results for the IC50 in assay [1] and in assay [4] were 1000 to 10000 nM and 10000 to 30000 nM, respectively. Besides, the Kd in assay [2] was at most 100 nM; in assay [3], 1000 to 10000 nM.
With `CN(C)C1CN(c2nc(N3CCNCC3)c3cc(Cl)c(-c4ccc(F)c5sc(N)nc45)c(F)c3n2)C1` [Compound 47], the IC50 in assay [1] and in assay [4] was 10000 to 30000 nM throughout. Also, the Kd in assay [2] lay within 1000 to 10000 nM; in assay [3] it was 10000 to 30000 nM.
For `CO[C@@H]1C[C@@H](COc2nc(NCCN)c3cc(Cl)c(-c4ccc(F)c5sc(N)nc45)c(F)c3n2)N(C)C1` [Compound 61], the IC50 in assay [1] and in assay [4] was 1000 to 10000 nM throughout. The Kd in assay [3] was 1000 to 10000 nM.
Turning to `NCCNc1ncnc2c(F)c(-c3ccc(F)c4sc(N)nc34)c(Cl)cc12` [Compound 5, N^1-(7-(2-amino-7-fluorobenzo[d]thiazol-4-yl)-6-chloro-8-fluoroquinazolin-4-yl)ethane-1,2-diamine], the 50% inhibitory concentration (IC50) in assay [1] and in assay [4] was 10000 to 30000 nM throughout. Also, the Kd is 1000 to 10000 nM in assay [2] and 10000 to 30000 nM in assay [3].
Take `CN1CCC[C@H]1COc1nc(NCCN)c2cc(Cl)c(-c3ccc(F)c4sc(N)nc34)c(F)c2n1` [Compound 49]: the IC50 in assay [1] and in assay [4] was 1000 to 10000 nM each time. Also, the Kd was at most 100 nM in assay [2] and 1000 to 10000 nM in assay [3].
With `CO[C@@H]1CN(C)C[C@H]1Oc1nc(N2CCNCC2)c2cc(Cl)c(-c3ccc(F)c4sc(N)nc34)c(F)c2n1` [Compound 63], the 50% inhibitory concentration (IC50) in assay [1] and in assay [4] was 10000 to 30000 nM in each case. In addition, the Kd in assay [3] is 10000 to 30000 nM.
`CN1CCC[C@H]1COc1nc(N2CCN[C@@H](CC#N)C2)c2cc(Cl)c(-c3ccc(F)c4sc(N)nc34)c(F)c2n1` [Compound 56]: the IC50 in assay [1] and in assay [4] was 10000 to 30000 nM each time. In addition, the Kd in assay [2] lay in the range of 100 to 1000 nM; in assay [3] it was 10000 to 30000 nM.
For `CN1CCC[C@H]1COc1nc(NC2CNC2)c2cc(Cl)c(-c3ccc(F)c4sc(N)nc34)c(F)c2n1` [Compound 55, 4-(4-(azetidin-3-ylamino)-6-chloro-8-fluoro-2-(((S)-1-methylpyrrolidin-2-yl)methoxy)quinazolin-7-yl)-7-fluorobenzo[d]thiazol-2-amine], the IC50 in assay [1] and in assay [4] was 1000 to 10000 nM in each case. For the same molecule, the Kd is at most 100 nM in assay [2] and 1000 to 10000 nM in assay [3].
In the case of `CN1CCC[C@H]1COc1nc(N2CCN(C(=O)CN)[C@@H](CC#N)C2)c2cc(Cl)c(-c3ccc(F)c4sc(N)nc34)c(O)c2n1` [Compound 59], the IC50 in assay [1] and in assay [4] was 10000 to 30000 nM each time. The molecule further returned a Kd in assay [3] of 1000 to 10000 nM.
As to `CN1CCC[C@H]1COc1nc(NCCN)c2cc(Cl)c(-c3cccc4cc(O)ccc34)c(F)c2n1` [Compound 74], the IC50 in assay [1] and in assay [4] was 10000 to 30000 nM each time. Moreover, in assay [3], the Kd was in the range of 10000 to 30000 nM.
Consider `Nc1nc2c(-c3c(Cl)cc4c(NC5CNC5)nc(OCC56CCCN5CCC6)nc4c3F)ccc(F)c2s1` [Compound 89], for which the IC50 in assay [1] and in assay [4] was 1000 to 10000 nM in each case. For the same molecule, the Kd in assay [3] was 100 to 1000 nM.
As for `Cc1ccc2[nH]ncc2c1-c1c(Cl)cc2c(NCCN)nc(OC[C@@H]3CCCN3C)nc2c1F` [Compound 62], the 50% inhibitory concentration (IC50) in assay [1] and in assay [4] was 10000 to 30000 nM in each case. The dissociation constant Kd in assay [3] fell in the range of 10000 to 30000 nM.
In the case of `N#CCc1cc2c(NC3CNC3)nc(OCC34CCCN3CCC4)nc2c(F)c1-c1ccc(F)c2sc(N)nc12` [Compound 126], the IC50 was above 1000 nM in assay [5], 1000 to 10000 nM in assay [1] and 1000 to 10000 nM in assay [4].
With `CN(c1nc(OC[C@@]23CCCN2C[C@H](F)C3)nc2c(F)c(-c3ccc(F)c4sc(N)c(C#N)c34)c(F)cc12)[C@@H]1CCNC1` [Compound 377], the 50% inhibitory concentration (IC50) in assay [5], in assay [1] and in assay [4] was 100 to 1000 nM throughout.
Regarding `CN(c1nc(OC[C@@]23CCCN2C[C@H](F)C3)nc2c(F)c(-c3ccc(F)c4sc(N)nc34)c(C(F)(F)F)cc12)[C@H]1CNCC12CC2` [Compound 312], the concentration for half-maximal inhibition (IC50) in assay [5] lay within 100 to 1000 nM; in assay [1], 1000 to 10000 nM; in assay [4], 10000 to 30000 nM.
With `Nc1nc2c(-c3c(C(F)(F)F)cc4c(NC5CNC5)nc(OCC56CCCN5CCC6)nc4c3F)ccc(F)c2o1` [Compound 199], the 50% inhibitory concentration (IC50) in assay [5] was above 1000 nM; in assay [1], 100 to 1000 nM; in assay [4], 1000 to 10000 nM.
The matching figures for `CN(c1nc(OC[C@@]23CCCN2C[C@H](F)C3)nc2cc(-c3ccc(F)c4sc(N)c(C#N)c34)c(C(F)(F)F)cc12)[C@H]1CNC[C@@H]1F` [Compound 356]: 100 to 1000 nM, 1000 to 10000 nM and 1000 to 10000 nM.
The matching figures for `Nc1nc2c(-c3c(C(F)F)cc4c(N5C[C@H]6CC[C@@H](C5)N6)nc(OC[C@@]56CCCN5C[C@H](F)C6)nc4c3F)ccc(F)c2s1` [Compound 370, 4-(4-((1R,5S)-3,8-diazabicyclo[3.2.1]octan-3-yl)-6-(difluoromethyl)-8-fluoro-2-(((2R,7aS)-2-fluorotetrahydro-1H-pyrrolizin-7a(5H)-yl)methoxy)quinazolin-7-yl)-7-fluorobenzo[d]thiazol-2-amine]: at most 100 nM, 100 to 1000 nM and 100 to 1000 nM.
For the molecule `Nc1nc2c(-c3c(C(F)(F)F)cc4c(N5CC6COCC(C5)N6)nc(OC[C@@]56CCCN5C[C@H](F)C6)nc4c3F)ccc(F)c2s1` [Compound 300], the IC50 in assay [5], in assay [1] and in assay [4] was 100 to 1000 nM each time.
On to `N#Cc1c(N)sc2c(F)ccc(-c3c(C(F)(F)F)cc4c(N5CC[C@@H]6CNCC[C@@H]65)nc(OC[C@@]56CCCN5C[C@H](F)C6)nc4c3F)c12` [Compound 376], for which the IC50 is at most 100 nM in assay [5], 100 to 1000 nM in assay [1] and 100 to 1000 nM in assay [4].
`Nc1nc2c(-c3c(C(F)(F)F)cc4c(NC5CNC5)nc(OC[C@@]56CCCN5C[C@H](F)C6)nc4c3F)ccc(F)c2s1` [Compound 247]: the values for the IC50 in assay [5], in assay [1] and in assay [4] were above 1000 nM, 100 to 1000 nM and 100 to 1000 nM, respectively.
In the case of `Nc1nc2c(-c3c(C(F)(F)F)cc4c(N5CC6CC(C5)N6)nc(OCC56CCCN5CCC6)nc4c3F)ccc(F)c2s1` [Compound 185], the IC50 in assay [5], in assay [1] and in assay [4] was 100 to 1000 nM throughout.
As to `N#Cc1c(N)sc2c(F)ccc(-c3c(C(F)(F)F)cc4c(N5CC6CCC(C5)N6)nc(OC[C@@]56CCCN5C[C@H](F)C6)nc4c3F)c12` (single isomer, unassigned) [Compound 366], the IC50 in assay [5], in assay [1] and in assay [4] was at most 100 nM in each case.
Regarding `Nc1nc2c(-c3c(C(F)(F)F)cc4c(N[C@H]5C[C@H]6CNC[C@H]6C5)nc(OCC56CCCN5CCC6)nc4c3F)ccc(F)c2s1` [Compound 326], the half-inhibitory concentration (IC50) in assay [5] is above 1000 nM; in assay [1], 1000 to 10000 nM; in assay [4], 1000 to 10000 nM.
Take `N#Cc1cc2c(N3CC4CCC(C3)N4)nc(OC[C@@]34CCCN3C[C@H](F)C4)nc2c(F)c1-c1ccc(F)c2sc(N)nc12` [Compound 258]: the half-maximal inhibitory concentration (IC50) is at most 100 nM in assay [5], 100 to 1000 nM in assay [1] and 100 to 1000 nM in assay [4].
For the molecule `NCCNc1nc(OCC23CCCN2CCC3)nc2c(F)c(-c3ccc(F)c4sc(N)nc34)c(Cl)cc12` [Compound 77], the IC50 in assay [1] and in assay [4] was 1000 to 10000 nM each time. This molecule yielded a Kd in assay [3] of 100 to 1000 nM.

For orientation: IC50 means the point on the concentration scale where inhibition reaches its midpoint. For orientation: Kd means the concentration at which binding is half-saturated. A high value points to lower affinity.
